target: T1, androgen receptor (AR-LBD) (Rattus norvegicus, UniProt P15207); assay: Evaluation of androgen receptor affinity (PolarScreen Androgen Receptor Competitor Assay Kit, Red; fluorescence polarization); settings: 22° C. for 5 hours, relative to binding rate of 1 μM DHT, read-out: AR affinity (pEC50) (converted)
T1 construct: 5 μL of 2×AR-LBD/Fluoromone AL Red Complex contained in the kit; purchased Invitrogen
T1 sequence (P15207 651-882 limits assumed): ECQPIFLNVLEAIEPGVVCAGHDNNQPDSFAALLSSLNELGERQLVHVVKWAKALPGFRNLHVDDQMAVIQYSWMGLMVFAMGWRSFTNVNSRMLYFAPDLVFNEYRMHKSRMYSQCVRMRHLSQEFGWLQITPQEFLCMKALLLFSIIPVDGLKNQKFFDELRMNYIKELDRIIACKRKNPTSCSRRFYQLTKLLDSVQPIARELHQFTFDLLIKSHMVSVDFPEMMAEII
Method in brief: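 Duplicate wells of test compound were mixed with the kit's rat AR-LBD–Fluoromone AL Red tracer complex and left 5 hours at 22 °C before polarization was read. A 4-parameter fit gave pEC50, with binding rate referenced to 1 μM dihydrotestosterone.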

SMILES | EC50 [nM]
Cc1sc(N(Cc2ccccc2)c2cc3ccccc3cn2)nc1C(=O)NS(C)(=O)=O [Compound 745, 2-[benzyl(3-isoquinolyl)amino]-5-methyl-N-methylsulfonyl-thiazole-4-carboxamide] | > 2000
Cc1sc(N(Cc2ccccc2)c2ccc3ccn(C)c3c2)nc1C(=O)NS(C)(=O)=O [Compound 746, 2-[benzyl-(1-methylindol-6-yl)amino]-5-methyl-N-methylsulfonyl-thiazole-4-carboxamide] | > 2000
COc1cccc(N(Cc2ccccc2)c2nc(C(=O)NS(C)(=O)=O)c(C)s2)c1 [Example 204, 2-(N-benzyl-3-methoxy-anilino)-5-methyl-N-methylsulfonyl-thiazole-4-carboxamide] | > 2000
Cc1sc(N(Cc2ccccc2)c2cccc(O)c2)nc1C(=O)NS(C)(=O)=O [Example 205, 2-(N-benzyl-3-hydroxy-anilino)-5-methyl-N-methylsulfonyl-thiazole-4-carboxamide] | > 2000
Cc1sc(N(Cc2ccccc2)c2ccc(O)cc2)nc1C(=O)NS(C)(=O)=O [Example 206, 2-(N-benzyl-4-hydroxy-anilino)-5-methyl-N-methylsulfonyl-thiazole-4-carboxamide] | > 2000
Cc1sc(N(Cc2ccccc2)c2ccccc2O)nc1C(=O)NS(C)(=O)=O [Example 207, 2-(N-benzyl-2-hydroxy-anilino)-5-methyl-N-methylsulfonyl-thiazole-4-carboxamide] | > 2000
Cc1sc(N(Cc2ccccc2)c2cccc(OCCOCc3ccccc3)c2)nc1C(=O)NS(C)(=O)=O [Example 208, 2-[N-benzyl-3-(2-benzyloxyethoxy)anilino]-5-methyl-N-methylsulfonyl-thiazole-4-carboxamide] | > 2000
Cc1sc(N(Cc2ccccc2)c2ccc(OCCOCc3ccccc3)cc2)nc1C(=O)NS(C)(=O)=O [Example 209, 2-[N-benzyl-4-(2-benzyloxyethoxy)anilino]-5-methyl-N-methylsulfonyl-thiazole-4-carboxamide] | > 2000
Cc1sc(N(Cc2ccccc2)c2cccc(OCCO)c2)nc1C(=O)NS(C)(=O)=O [Example 210, 2-[N-benzyl-3-(2-hydroxyethoxy)anilino]-5-methyl-N-methylsulfonyl-thiazole-4-carboxamide] | > 2000
Cc1sc(N(Cc2ccccc2)c2ccc(OCCO)cc2)nc1C(=O)NS(C)(=O)=O [Example 211, 2-[N-benzyl-4-(2-hydroxyethoxy)anilino]-5-methyl-N-methylsulfonyl-thiazole-4-carboxamide] | > 2000
Cc1sc(N(Cc2ccccc2)c2ccc(OCC(=O)O)cc2)nc1C(=O)NS(C)(=O)=O [Example 212, 2-[4-[benzyl-[5-methyl-4-(methylsulfonylcarbamoyl)thiazol-2-yl]amino]phenoxy]acetic acid] | > 2000
CNC(=O)COc1ccc(N(Cc2ccccc2)c2nc(C(=O)NS(C)(=O)=O)c(C)s2)cc1 [Example 213, 2-[N-benzyl-4-[2-(methylamino)-2-oxo-ethoxy]anilino]-5-methyl-N-methylsulfonyl-thiazole-4-carboxamide] | > 2000
Cc1sc(N(Cc2ccccc2)c2ccc(OCC(=O)N(C)C)cc2)nc1C(=O)NS(C)(=O)=O [Example 214, 2-[N-benzyl-4-[2-(dimethylamino)-2-oxo-ethoxy]anilino]-5-methyl-N-methylsulfonyl-thiazole-4-carboxamide] | > 2000
Cc1sc(N(Cc2ccccc2)c2cccc(C(F)(F)F)c2)nc1C(=O)NS(C)(=O)=O [Example 224, 2-[N-benzyl-3-(trifluoromethyl)anilino]-5-methyl-N-methylsulfonyl-thiazole-4-carboxamide] | 1260
Cc1sc(N(Cc2ccccc2)c2cccc(C#N)c2)nc1C(=O)NS(C)(=O)=O [Example 225, 2-(N-benzyl-3-cyano-anilino)-5-methyl-N-methylsulfonyl-thiazole-4-carboxamide] | > 2000

Continued, values first:

EC50 [nM] | SMILES
> 2000 | Cc1sc(N(Cc2ccccc2)c2ccc(CO)cc2)nc1C(=O)NS(C)(=O)=O [Example 226, 2-[N-benzyl-4-(hydroxymethyl)anilino]-5-methyl-N-methylsulfonyl-thiazole-4-carboxamide]
> 2000 | Cc1sc(N(Cc2ccccc2)c2cccc3ccccc23)nc1C(=O)NS(C)(=O)=O [Example 227, 2-[benzyl(1-naphthyl)amino]-5-methyl-N-methylsulfonyl-thiazole-4-carboxamide]
> 2000 | Cc1sc(N(Cc2ccccc2)c2ccccc2C(F)(F)F)nc1C(=O)NS(C)(=O)=O [Example 228, 2-[N-benzyl-2-(trifluoromethyl)anilino]-5-methyl-N-methylsulfonyl-thiazole-4-carboxamide]
> 2000 | Cc1sc(N(Cc2ccccc2)c2cccc(CO)c2)nc1C(=O)NS(C)(=O)=O [Example 229, 2-[N-benzyl-3-(hydroxymethyl)anilino]-5-methyl-N-methylsulfonyl-thiazole-4-carboxamide]
> 2000 | Cc1sc(N(Cc2ccccc2)c2cccc(CCOCc3ccccc3)c2)nc1C(=O)NS(C)(=O)=O [Example 231, 2-[N-benzyl-3-(2-benzyloxyethyl)anilino]-5-methyl-N-methylsulfonyl-thiazole-4-carboxamide]
> 2000 | Cc1sc(N(Cc2ccccc2)c2ccccc2C#N)nc1C(=O)NS(C)(=O)=O [Example 233, 2-(N-benzyl-2-cyano-anilino)-5-methyl-N-methylsulfonyl-thiazole-4-carboxamide]
> 2000 | Cc1sc(N(Cc2ccccc2)c2ccc(CCO)cc2)nc1C(=O)NS(C)(=O)=O [Example 234, 2-[N-benzyl-4-(2-hydroxyethyl)anilino]-5-methyl-N-methylsulfonyl-thiazole-4-carboxamide]
> 2000 | Cc1sc(N(Cc2ccccc2)c2ccc(CCOCc3ccccc3)cc2)nc1C(=O)NS(C)(=O)=O [Example 235, 2-[N-benzyl-4-(2-benzyloxyethyl)anilino]-5-methyl-N-methylsulfonyl-thiazole-4-carboxamide]
> 2000 | Cc1sc(N(Cc2ccccc2)c2ccnc3ccccc23)nc1C(=O)NS(C)(=O)=O [Example 236, 2-[benzyl(4-quinolyl)amino]-5-methyl-N-methylsulfonyl-thiazole-4-carboxamide]
631 | Cc1sc(N(Cc2ccccc2)c2ccc(C(F)(F)F)nn2)nc1C(=O)NS(C)(=O)=O [Example 237, 2-[benzyl-[6-(trifluoromethyl)pyridazin-3-yl]amino]-5-methyl-N-methylsulfonyl-thiazole-4-carboxamide]
> 2000 | Cc1sc(N(Cc2ccccc2)c2cccnn2)nc1C(=O)NS(C)(=O)=O [Example 238, 2-[benzyl(pyridazin-3-yl)amino]-5-methyl-N-methylsulfonyl-thiazole-4-carboxamide]
> 2000 | COC(=O)c1ccc(N(Cc2ccccc2)c2nc(C(=O)NS(C)(=O)=O)c(C)s2)nn1 [Example 239, methyl 6-[benzyl-[5-methyl-4-(methylsulfonylcarbamoyl)thiazol-2-yl]amino]pyridazine-3-carboxylate]
79.4 | Cc1cccc(CN(c2ccc(C#N)cc2)c2nc(C(=O)NS(C)(=O)=O)c(Br)s2)c1 [Example 245, 5-bromo-2-[4-cyano-N-(m-tolylmethyl)anilino]-N-methylsulfonyl-thiazole-4-carboxamide]
